Where a SMILES comes first, the peptide text is derived from it. [ ]: non-standard residue; d: D form.

Data on one compound can be found in patent publication US10975123B2, “Mutant Akt-specific capture agents, compositions, and methods of using and making” (California Institute of Technology, priority 2014, dated 2021).

Experiment [1] addresses T1, E17K 33-mer epitope (PH Domain fragment of Akt1) (Homo sapiens, UniProt P31749, E17K/H13K).
T1 construct: made in house; host or cells: chemical synthesis (Fmoc SPPS)
T1 sequence (P31749 1-33 H13K/E17K limits assumed): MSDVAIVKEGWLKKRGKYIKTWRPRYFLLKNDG
The experiment is described as follows: Fluorescence polarization binding to E17K mutant epitope. As to conditions: yleaf peptide 4, fluorescence polarization in solution, triplicate. As for the experimental part:
(§1) FIG. 2: Anchor ligand structure and characterization. (FIG. 2A) The peptide anchor ligand, yleaf (SEQ ID NO: 43), which was discovered using the epitope-targeting technique. The different sets of R groups indicate the modifications that were made to perform the various experiments described. (FIG. 2B) Point ELISA for specificity obtained by immobilizing biotinylated yleaf (SEQ ID NO: 43) anchor ligand 2 onto a Neutravidin plate, then incubating with a 6 His-tagged epitope (“6 His” disclosed as SEQ ID NO: 4) 3. […] (FIG. 2C) Binding curves of yleaf (SEQ ID NO: 43) anchor ligand 4 to the full-length WT or E17K mutant Akt1 proteins obtained in solution by fluorescence polarization. A saturation point for the WT ligand was not reached due to the prohibitively high protein concentration required. (FIG. 2D) Full binding curves of yleaf (SEQ ID NO: 43) anchor ligand 4 to the WT or E17K mutant epitopes. […] All assays were performed in triplicate and averaged. Error bars indicate standard deviation.
The selectivity of the yleaf (SEQ ID NO: 43) peptide for the E17K 33-mer epitope was also tested in an ELISA assay format. For these assays, the WT or E17K 33-mer peptide fragments were captured using the PEG-biotin-modified yleaf (SEQ ID NO: 43) ligand immobilized on a neutravidin-coated plate.
Background: In fluorescence polarisation assays a small probe gives low polarisation when free and higher when bound to something large.

The target in the next experiment is T2, GST-Akt1(E17K) protein (Homo sapiens, UniProt P31749, E17K).
T2 construct: 50 μL of full-length GST-E17K Akt1 from SignalChem was treated with 10× molar excess of the anchor ligand; purchased SignalChem
T2 sequence (P31749 whole entry E17K): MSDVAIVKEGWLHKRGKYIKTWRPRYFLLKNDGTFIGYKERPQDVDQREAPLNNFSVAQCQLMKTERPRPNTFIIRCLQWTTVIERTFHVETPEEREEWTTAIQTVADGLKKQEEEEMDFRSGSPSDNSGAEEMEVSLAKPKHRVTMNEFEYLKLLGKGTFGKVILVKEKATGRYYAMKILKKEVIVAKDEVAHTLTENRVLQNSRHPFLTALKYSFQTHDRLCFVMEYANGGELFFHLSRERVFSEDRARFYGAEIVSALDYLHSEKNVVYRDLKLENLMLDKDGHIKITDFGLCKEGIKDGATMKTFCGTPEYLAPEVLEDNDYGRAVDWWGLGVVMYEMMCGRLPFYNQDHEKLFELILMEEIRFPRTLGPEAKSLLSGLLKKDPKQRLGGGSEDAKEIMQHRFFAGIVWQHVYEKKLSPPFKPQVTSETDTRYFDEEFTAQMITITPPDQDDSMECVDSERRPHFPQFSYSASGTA
The experiment is described as follows: Ligand-directed tosylate labeling with MALDI-TOF MS of tryptic digests. The class given is binding. As to conditions: yleaf with N-terminal tosylate-Cy5 (ligand 5), 10x molar excess, two days room temperature. An excerpt:
The selectivity of the yleaf ligand was further verified using the directed labeling technique reported by Tsukiji et al^19. The approach yields information relative to the binding location of the ligand on the protein target. For this method, a payload is attached to the N-terminus of the targeting yleaf ligand through an electrophilic tosylate linker. Upon ligand binding to the protein target, the payload is transferred onto the protein through a nucleophilic SN2 reaction with proximal nucleophilic amino acid side chains (FIG. 3a). The protein can then be trypsin digested and the identity of the fragments containing the payload can be mapped on the protein surface using mass spectrometry (MS). Thus, the site of ligand binding can be estimated. […]
For the assay, yleaf was modified at the N-terminus to contain a tosylate linker attached to a Cy5 dye molecule to enable easy identification of the labeled and digested protein fragments (FIG. 2a and FIG. 16). […] The labeling of protein target was initially confirmed by visualization on a fluorescent gel reader (FIG. 3b) as well as a Western blotting visualization of an experiment in which a biotin-label was substituted for the fluorescent tag. The labeled protein and an unlabeled control were then trypsin digested from the gel and were analyzed by matrix-assisted laser desorption/ionization time-of-flight (MALDI-TOF) MS (FIGS. 18 and 19). […]

The next experiment deals with full length Akt1E17K (Homo sapiens, UniProt P31749, E17K). The experiment is described as follows: Fluorescence polarization binding to full-length E17K Akt1. As to conditions: yleaf peptide 4, fluorescence polarization in solution, triplicate. The protocol:
as §1
FIG. 5: The PCC agent triligand development strategy, structure, and inhibition data. (FIG. 5A) The yleaf (SEQ ID NO: 43) anchor ligand with a C-terminal alkyne 2 was screened against an azide-terminated library in the presence of the full-length PH Domain to identify a biligand. The biligand 7 was then appended with an N-terminal azide and screened against an alkyne library to identify a triligand. […]

Chain of full length Akt1E17K (P31749 whole entry E17K): as above

`CC(C)C[C@@H](NC(=O)[C@H](N)Cc1ccc(O)cc1)C(=O)N[C@H](CCC(=O)O)C(=O)N[C@H](C)C(=O)N[C@H](Cc1ccccc1)C(N)=O` [yleaf] (H-[dY][dL][dE][dA][dF]-NH2; N-terminus assumed): the results for the Kd (in experiment [1]; on full length Akt1E17K) were 328 ± 96 nM and 54 ± 7 nM, respectively. In addition, at GST-Akt1(E17K) protein, the “location of labeled sites on the protein (binding site, off-target binding)” value is given as “only sites around the expected N-terminal binding site of the yleaf ligand are labeled”.

The Kd is the constant that tells how readily two partners part at equilibrium. Low readings indicate higher affinity, high ones lower affinity.
